Consider 25 molecules from patent US8269000B2, “Substituted pyrimidine and triazine compounds” (Gruenenthal GmbH, priority 2008, dated 2012).

Each structure is given as a SMILES string.

One assay addresses T1, rat B1R (Rattus norvegicus, UniProt P97583).
T1 construct: expressed in transfected cells; host or cells: CHO K1 cells
T1 sequence (P97583 1-337): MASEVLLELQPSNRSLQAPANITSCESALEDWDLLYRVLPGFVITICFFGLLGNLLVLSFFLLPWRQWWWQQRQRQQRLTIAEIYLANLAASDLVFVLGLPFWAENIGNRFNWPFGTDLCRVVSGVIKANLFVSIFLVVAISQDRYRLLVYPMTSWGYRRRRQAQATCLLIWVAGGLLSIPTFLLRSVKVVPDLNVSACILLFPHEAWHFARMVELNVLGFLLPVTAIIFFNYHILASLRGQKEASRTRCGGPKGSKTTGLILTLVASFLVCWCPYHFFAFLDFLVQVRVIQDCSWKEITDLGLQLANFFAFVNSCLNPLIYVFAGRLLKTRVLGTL
The experiment in a line: FLIPR Ca2+ functional study on bradykinin receptor 1 (rB1R CHO K1 cells). The following applies: % inhibition rat B1R at 10 μM. In kind it is cell-based. In a few lines:
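CHO K1 cells stably expressing human or rat B1R were loaded with Fluo-4 and read on FLIPR (ex 488/em 540 nm, peak counts). Test compound (10 μM, or a concentration range for IC50) was added first for % activation versus control agonist; after 10-20 min, EC80 Lys-Des-Arg9-bradykinin (human) or Des-Arg9-bradykinin (rat) was added, giving % inhibition of maximum. n=2-3, N≥2.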
As for `COc1cc(C)c(S(=O)(=O)N2CCC[C@H]2COc2ccnc(N3CCC4(CC3)C(=O)NCN4c3ccccc3)n2)c(C)c1` [H_CC-024, 8-[4-[[(2S)-1-(4-methoxy-2,6-dimethylphenyl)sulfonyl-2-pyrrlidinyl]methoxy]-2-pyrimidinyl]-4-phenyl-2,4,8-triazaspiro[4.5]decan-1-one], the “% inh. (rat B1R) 10 μM” value turned out to be 97%.
Turning to `COc1cc(C)c(S(=O)(=O)N2CCC[C@H]2COc2ccnc(N3CCN(C4CCN(C)CC4)CC3)n2)c(C)c1` [H_CC-025, 4-[[(2S)-1-(4-methoxy-2,6-dimethylphenyl)sulfonyl-2-pyrrlidinyl]methoxy]-2-[4-(1-methyl-4-piperidinyl)-1-piperazinyl]pyrimidine], the “% inh. (rat B1R) 10 μM” value worked out at 65%.
In the case of `COc1cc(C)c(S(=O)(=O)N2CCC[C@H]2COc2ccnc(N3CCC(CCN4CCCCC4)CC3)n2)c(C)c1` [H_CC-026, 4-[[(2S)-1-(4-methoxy-2,6-dimethylphenyl)sulfonyl-2-pyrrlidinyl]methoxy]-2-[4-[2-(1-piperidyl)ethyl]-1-piperidinyl]pyrimidine], the “% inh. (rat B1R) 10 μM” value is recorded as 75%.
As for `COc1cc(C)c(S(=O)(=O)N2CCC[C@@H]2COc2ccnc(N3CCCN(Cc4ccccn4)CC3)n2)c(C)c1` [H_CC-043, 1-[4-[[(2R)-1-[(4-methoxy-2,6-dimethyl-phenyl)sulfonyl]-pyrrolidin-2-yl]-methoxy]-pyrimidin-2-yl]-4-(pyridin-2-yl-methyl)-[1,4]diazepam], the “% inh. (rat B1R) 10 μM” value is 80%.
Take `COc1cc(C)c(S(=O)(=O)N2CCC[C@H]2COc2ccnc(N3CCC(c4nc(-c5ccncc5)no4)CC3)n2)c(C)c1` [H_CC-048]: the “% inh. (rat B1R) 10 μM” value came out at 63%.

The same assay, now with this note: CHO-K1, % inhibition rat B1R at 10 μM, read-out: % inh. (rat B1R) 10 μM.
With `COc1cc(C)c(S(=O)(=O)N2CCC[C@H]2COc2ccnc(N3CCC4(CCN(Cc5ccccc5)C4)C3)n2)c(C)c1` (stereo partly drawn) [H_CC-023, 3-benzyl-7-[4-[[(2S)-1-(4-methoxy-2,6-dimethylphenyl)sulfonyl-2-pyrrolidinyl]methoxy]-2-pyrimidinyl]-3,7-diazaspiro[4.4]nonane], the inhibition at 10 µM came out at 76%.
On the same count and under the same terms, for `COc1cc(C)c(S(=O)(=O)N2c3ccccc3C[C@H]2COc2ccnc(N3CCN(C4CCN(C)CC4)CC3)n2)c(C)c1` [H_CC-027, (2S)-1-(4-methoxy-2,6-dimethylphenyl)sulfonyl-2-[[2-[4-(1-methyl-4-piperidinyl)-1-piperazinyl]-4-pyrimidinyl]oxymethyl]indoline] the value was 91%; for `COc1cc(C)c(S(=O)(=O)N2c3ccccc3C[C@H]2COc2ccnc(N3CCC(CCN4CCCCC4)CC3)n2)c(C)c1` [H_CC-028, (2S)-1-(4-methoxy-2,6-dimethylphenyl)sulfonyl-2-[[2-[4-[2-(1-piperidyl)ethyl]-1-piperidinyl]-4-pyrimidinyl]oxymethyl]indoline], 83%.
For the molecule `COc1cc(C)c(S(=O)(=O)N2CCCCC2COc2ccnc(N3CCC4(CCN(Cc5ccc(F)cc5)C4=O)CC3)n2)c(C)c1` (stereo not shown) [H_CC-030, 3-[(4-fluorophenyl)methyl]-8-[4-[[1-(4-methoxy-2,6-dimethylphenyl)sulfonyl-2-piperidinyl]methoxy]-2-pyrimidinyl]-3,8-diazaspiro[4.5]decan-4-one], the inhibition at 10 µM was determined as 49%.
Still for that read-out and setting: the result for `COc1cc(C)c(S(=O)(=O)N2CCCCC2COc2ccnc(N3CCC(CNC(=O)c4ccncc4)(N4CCN(C)CC4)CC3)n2)c(C)c1` (stereo not shown) [H_CC-031, N-[[1-[4-[[1-(4-methoxy-2,6-dimethylphenyl)sulfonyl-2-piperidinyl]methoxy]-2-pyrimidinyl]-4-(4-methyl-1-piperazinyl)-4-piperidinyl]methyl]-4-pyridinecarboxamide] reads 56%; that for `COc1cc(C)c(S(=O)(=O)N(C)CCOc2ccnc(N3CCC(OCCN4CCCC4)(c4cccnc4)CC3)n2)c(C)c1` [H_CC-033, 4-methoxy-N,2,6-trimethyl-N-[2-[[2-[4-(3-pyridyl)-4-(2-1-pyrrolidinylethoxy)-1-piperidinyl]-4-pyrimidinyl]oxy]ethyl]benzenesulfonamide], 82%.
On to `COc1cc(C)c(S(=O)(=O)N(C)CCOc2ccnc(N3CC4CC3CN4Cc3ccncc3)n2)c(C)c1` (stereo not shown) [H_CC-034, 4-methoxy-N,2,6-trimethyl-N-[2-[[2-[2-(4-pyridylmethyl)-2,5-diazabicyclo[2.2.1]heptan-5-yl]-4-pyrimidinyl]oxy]ethyl]benzenesulfonamide], for which the inhibition at 10 µM amounted to 74%.
On to `COc1cc(C)c(S(=O)(=O)N2CCCCC2COc2ccnc(N3CCC(OCCN4CCCC4)(c4cccnc4)CC3)n2)c(C)c1` (stereo not shown) [H_CC-035, 4-[[1-(4-methoxy-2,6-dimethylphenyl)sulfonyl-2-piperidinyl]methoxy]-2-[4-(3-pyridyl)-4-(2-1-pyrrolidinylethoxy)-1-piperidinyl]pyrimidine], for which the inhibition at 10 µM was determined as 86%.
As to `COc1cc(C)c(S(=O)(=O)N(C)C(COc2ccnc(N3CCN(c4ccncc4)CC3)n2)c2ccccc2)c(C)c1` (stereo not shown) [H_CC-036, 4-methoxy-N,2,6-trimethyl-N-[1-phenyl-2-[[2-[4-(4-pyridyl)-1-piperazinyl]-4-pyrimidinyl]oxy]ethyl]benzenesulfonamide], the inhibition at 10 µM stood at 71%.
On to `CN(C(COc1ccnc(N2CCC(OCCN3CCCC3)(c3cccnc3)CC2)n1)c1ccccc1)S(=O)(=O)c1ccc2ccccc2c1` (stereo not shown) [H_CC-038, N-methyl-N-[1-phenyl-2-[[2-[4-(3-pyridyl)-4-(2-1-pyrrolidinylethoxy)-1-piperidinyl]-4-pyrimidinyl]oxy]ethyl]-2-naphthalenesulfonamide], for which the inhibition at 10 µM was determined as 70%.
As to `COc1cc(C)c(S(=O)(=O)N(C)CCOc2ccnc(N3CCC4(CCN(Cc5ccc(F)cc5)C4=O)CC3)n2)c(C)c1` [H_CC-039, N-[2-[[2-[3-[(4-fluorophenyl)methyl]-4-oxo-3,8-diazaspiro[4.5]decan-8-yl]-4-pyrimidinyl]oxy]ethyl]-4-methoxy-N,2,6-trimethylbenzenesulfonamide], the inhibition at 10 µM is 50%.
As to `COc1cc(C)c(S(=O)(=O)N2CCC[C@H]2COc2ccnc(N3CCC(OCCN4CCCC4)(c4cccnc4)CC3)n2)c(C)c1` [H_CC-040, 4-[[(2S)-1-(4-methoxy-2,6-dimethylphenyl)sulfonyl-2-pyrrolidinyl]methoxy]-2-[4-(3-pyridyl)-4-(2-1-pyrrolidinylethoxy)-1-piperidinyl]pyrimidine], the inhibition at 10 µM worked out at 51%.
In the case of `COc1cc(C)c(S(=O)(=O)N2CCCC(Oc3ccnc(N4CCC(CCN5CCCCC5)CC4)n3)C2)c(C)c1` (stereo not shown) [H_CC-041, 4-[[1-(4-methoxy-2,6-dimethylphenyl)sulfonyl-3-piperidinyl]oxy]-2-[4-[2-(1-piperidyl)ethyl]-1-piperidinyl]pyrimidine], the inhibition at 10 µM is 48%.
In the case of `COc1cc(C)c(S(=O)(=O)N2CCCCC2COc2ccnc(N3CCCN(Cc4ccccn4)CC3)n2)c(C)c1` (stereo not shown) [H_CC-042, 1-[4-[[1-[(4-methoxy-2,6-dimethyl-phenyl)sulfonyl]-piperidin-2-yl]-methoxy]-pyrimidin-2-yl]-4-(pyridin-2-yl-methyl)-[1,4]diazepan], the inhibition at 10 µM was 61%.
With `COc1cc(C)c(S(=O)(=O)N2CCCCC2COc2ccnc(N(C)CCN3CCC(c4ccccc4)(N(C)C)CC3)n2)c(C)c1` (stereo not shown) [H_CC-044, 2-(4-dimethylamino-4-phenyl-piperidin-1-yl)-ethyl-[4-[[1-[(4-methoxy-2,6-dimethyl-phenyl)sulfonyl]-piperidin-2-yl]-methoxy]-pyrimidin-2-yl]-methyl-amine], the inhibition at 10 µM was 102%.
Still for that read-out and setting: for `CCCCC1(N(C)C)CCN(CCN(C)c2nccc(OCC3CCCCN3S(=O)(=O)c3c(C)cc(OC)cc3C)n2)CC1` (stereo not shown) [H_CC-045, 2-(4-butyl-4-dimethylamino-piperidin-1-yl)-ethyl-[4-[[1-[(4-methoxy-2,6-dimethyl-phenyl)sulfonyl]-piperidin-2-yl]-methoxy]-pyrimidin-2-yl]-methyl-amine] the value was 96%; for `COc1cc(C)c(S(=O)(=O)N2CCC[C@H]2COc2ccnc(N(C)CCCN3CCC(c4ccccc4)(N(C)C)CC3)n2)c(C)c1` [H_CC-046, 3-(4-dimethylamino-4-phenyl-piperidin-1-yl)-propyl-[4-[[(2S)-1-[(4-methoxy-2,6-dimethyl-phenyl)sulfonyl]-pyrrolidin-2-yl]-methoxy]-pyrimidin-2-yl]-methyl-amine], 89%.
In the case of `COc1cc(C)c(S(=O)(=O)N2CCC[C@H]2COc2ccnc(N3CCC(O)(c4ccccn4)CC3)n2)c(C)c1` [H_CC-047, 1-[4-[[(2S)-1-[(4-methoxy-2,6-dimethyl-phenyl)sulfonyl]-pyrrolidin-2-yl]-methoxy]-pyrimidin-2-yl]-4-pyridin-2-yl-piperidin-4-ol], the inhibition at 10 µM amounted to 85%.
On to `COc1cc(C)c(S(=O)(=O)N2CCCCC2COc2ccnc(N(C)CCN3CCC(Oc4ccncc4)CC3)n2)c(C)c1` (stereo not shown) [H_CC-049, [4-[[1-[(4-methoxy-2,6-dimethyl-phenyl)sulfonyl]-piperidin-2-yl]-methoxy]-pyrimidin-2-yl]-methyl-[2-(4-pyridin-4-yloxy-piperidin-1-yl)-ethyl]amine], for which the inhibition at 10 µM was 94%.
Regarding `COc1cc(C)c(S(=O)(=O)N2CCCCC2COc2ccnc(N3[C@@H]4CC[C@H]3CC(Oc3ccncc3)C4)n2)c(C)c1` (stereo partly drawn) [H_CC-050, (1S,5R)-8-[4-[[1-[(4-methoxy-2,6-dimethyl-phenyl)sulfonyl]-piperidin-2-yl]-methoxy]-pyrimidin-2-yl]-3-pyridin-4-yloxy-8-azabicyclo[3.2.1]octane], the inhibition at 10 µM stood at 74%.
